Measurements as given in patent US8211907B2, “Fused indane compound” (priority 2007, dated 2012).
Counter-ions that a name gives are not always drawn. Like-named read-outs stand apart in the source and are kept apart here.

Assays:
[1] = biological target: NMDA receptor
[2] = test system: male ddy mouse; assay: MES (maximal electroshock seizure) inhibitory action; assay type: in vivo; conditions: for ED50: oral administration, electroshock 30 minutes later
Description: A test compound was orally administered to a male ddy mouse, an inhibitory action on the seizures caused by an electroshock applied at 30 minutes later (Interval 10 ms, Duration 0.9 ms, Amplitude 50 mA, Gate 0.2 s) was evaluated, and an NMDA receptor inhibitory action in vivo was measured (Palmer G C, Harris E W, Ray R, Stagnitto M L, Schmiesing R J. Arch Int Pharmacodyn Ther. 1992 May-June; 317: 16-34).

[3] = test system: T1, NMDA receptor; assay: Intracellular calcium concentration determination by FLIPR in rat first-generation neurocytes (NMDA/glycine stimulation); assay type: cell-based; conditions: rat first-generation neurocytes (DIV7-9), NMDA/glycine-induced calcium rise, 10 μM MK-801 = 100% inhibition
T1 construct: IC50
Description: 1) Preparation of Rat First-Generation Neurocytes
Anesthetized with ether, Wistar rats (Nippon SLC) at the 19th day of pregnancy were let die from blood loss by breast incision. The abdomen was cut open, and the womb was extracted, and the fetus was removed. The whole brain was removed, the hemicerebrum was then isolated in Neurobasal medium (Glu, Asp-free; Gibco), and the meninx was removed. The hemicerebrum was recovered by centrifugation, and suspended in a cell-dispersing solution (0.36 mg/ml papain, 150 U/ml DNase 1, 0.02% L-cysteine monohydrochloride monohydrate, 0.02% bovine serum albumin, 0.5% glucose, Ca^2+, Mg^2+-free PBS), and treated at 37° C. for 15 minutes. This was centrifuged at 400 g for 5 minutes, and the supernatant was removed by suction. This was suspended in a neurocyte culture medium (Sumitomo Bakelite), and the cell masses were removed using a filter. The number of the living cells was counted, and 100,000 cells/well were incubated on a 96-well plate (Biocoat PDL96W black/clear (Nippon Becton Dickinson)) (37° C., 5% CO2).
2) Intracellular Calcium Concentration Determination by FLIPR (Fluorometric Imaging Plate Reader)
The culture medium of rat first-generation neurocytes (DIV7-9) was removed by suction, and the cells were washed once with a 100 μl assay buffer (Hank's Balanced Salt Solution (Ca^2+, Mg^2+-free), 20 mM Hepes-NaOH (pH 7.4), 1 mM CaCl2). 100 μl of the assay buffer containing Fluo3 (Dojin Chemical) was added thereto, and incubated for 1 hour (37° C., 5% CO2). The cells were washed three times with 100 μl of the assay buffer, and then a compound solution dissolved in 1 μl of dimethylsulfoxide, and 100 μl of the assay buffer containing 2.5 μM (final concentration) tetrodotoxin were added thereto and incubated for 30 minutes (37° C., 5% CO2). The fluorescent intensity was measured at intervals of two seconds, and ten seconds after the measurement start, 50 μl of a ligand solution (Hank's Balanced Salt Solution (Ca^2+, Mg^2+-free), 20 mM Hepes-NaOH (pH 7.4), 1 mM CaCl2, 9 μM NMDA, 30 μM glycine) containing the compound solution dissolved in 0.5 μl of dimethylsulfoxide was added thereto, and the fluorescent intensity was measured for 120 seconds from the start of the measurement. The data measured for total of 120 seconds (60 times in total) were averaged.

[4] = biological target: NMDA receptor; assay: [3H] MK-801 binding test on rat brain membrane specimen
[5] = Mus musculus, po, 0.5 h, read-out: ED50

| SMILES | Ki [1] | ED50 [2, 5] | Ki [4] | also measured |
| --- | --- | --- | --- | --- |
| c1ccc2c(c1)C[C@H]1CCCN[C@@H]21 (racemic) [Compound A, (4aRS,9bRS)-2,3,4,4a,5,9b-hexahydro-1H-indeno[1,2-b]pyridine, reference compound] | 38 µM | > 80 mg/kg | – | anti-seizure action ([2]; at 80 mg/kg, oral): did not exhibit an anti-seizure action |
| c1ccc([C@@H]2c3ccccc3[C@@H]3NCCC[C@H]23)cc1 (racemic) [Compound B, (4aRS,5RS,9bRS)-5-phenyl-2,3,4,4a,5,9b-hexahydro-1H-indeno[1,2-b]pyridine, reference compound] | 23 µM | – | – | – |
| c1ccc([C@@H]2c3ccccc3[C@@H]3NCCC[C@H]23)cc1 (racemic) [Compound C, reference compound] | 20 µM | – | – | – |
| CC[C@]12CCCN[C@H]1c1ccccc1C2 (racemic) [Example 1, (4aRS,9bRS)-4a-ethyl-2,3,4,4a,5,9b-hexahydro-1H-indeno[1,2-b]pyridine hydrochloride] | – | 6.8 mg/kg | 900 nM | IC50 ([3]; read-out: IC50): 5.1 µM |
| C[C@@]12CCCN[C@@H]1c1ccccc1S2 (racemic) [Example 13, (4aRS,9bRS)-4a-methyl-1,2,3,4,4a,9b-hexahydro[1]benzothieno[3,2-b]pyridine hydrochloride] | – | 14 mg/kg | 2000 nM | – |
| C[C@]12CCCN[C@H]1c1ccccc1C2 (racemic) [Example 22, (4aRS,9bRS)-4a-methyl-2,3,4,4a,5,9b-hexahydro-1H-indeno[1,2-b]pyridine hydrochloride] | – | 11 mg/kg | 5100 nM | IC50 ([3]; read-out: IC50): 34 µM |
| C[C@]12CCCCN[C@H]1c1ccccc1C2 (racemic) [Example 38-1, (5aRS,10bRS)-5a-methyl-1,2,3,4,5,5a,6,10b-octahydroindeno[1,2-b]azepine hydrochloride] | – | – | 500 nM | – |
| C[C@]12CCCCN[C@@H]1c1ccccc1C2 (racemic) [Example 38-2, (5aRS,10bSR)-5a-methyl-1,2,3,4,5,5a,6,10b-octahydroindeno[1,2-b]azepine hydrochloride] | – | – | 6300 nM | – |
| CN1CCC[C@]2(C)Cc3ccccc3[C@H]12 (racemic) [Example 42, (4aRS,9bRS)-1,4a-dimethyl-2,3,4,4a,5,9b-hexahydro-1H-indeno[1,2-b]pyridine methanesulfonate] | 1.3 µM | 31 mg/kg | – | – |
| C[C@]12CCCN[C@@]1(C)c1ccccc1C2 (racemic) [Example 63, (4aRS,9bRS)-4a,9b-dimethyl-2,3,4,4a,5,9b-hexahydro-1H-indeno[1,2-b]pyridine hydrochloride] | – | 5.8 mg/kg | 800 nM | IC50 ([3]; read-out: IC50): 3 µM |
| CC[C@]12CCCN[C@H]1c1cc(COC)ccc1C2 (racemic) [Example 73, (4aRS,9bRS)-4a-ethyl-8-(methoxymethyl)-2,3,4,4a,5,9b-hexahydro-1H-indeno[1,2-b]pyridine hydrochloride] | – | – | 7100 nM | – |
| CC[C@]12CCCN[C@H]1c1ccccc1C2 (single isomer, unassigned) [Example 83-1, (4aR*,9bR*)-4a-ethyl-2,3,4,4a,5,9b-hexahydro-1H-indeno[1,2-b]pyridine hydrochloride] | – | 6.2 mg/kg | – | IC50 ([3]; hydrochloride, read-out: IC50): 3.1 µM; Ki ([4]; hydrochloride): 600 nM |
| CC[C@]12CCCN[C@H]1c1ccccc1C2 (single isomer, unassigned) [Example 83-2, (4aR*,9bR*)-4a-ethyl-2,3,4,4a,5,9b-hexahydro-1H-indeno[1,2-b]pyridine hydrochloride] | – | – | – | IC50 ([3]; hydrochloride, read-out: IC50): 12 µM; Ki ([4]; hydrochloride): 2700 nM |
| C[C@]12CCCN[C@@]1(C)c1ccccc1C2 (single isomer, unassigned) [Example 84-1, (4aR*,9bR*)-4a,9b-dimethyl-2,3,4,4a,5,9b-hexahydro-1H-indeno[1,2-b]pyridine hydrochloride] | – | – | – | IC50 ([3]; hydrochloride, read-out: IC50): 1.8 µM; Ki ([4]; hydrochloride): 500 nM; ED50 ([2]; hydrochloride): 4.2 mg/kg, po |
| C[C@]12CCCN[C@@]1(C)c1ccccc1C2 (single isomer, unassigned) [Example 84-2, (4aR*,9bR*)-4a,9b-dimethyl-2,3,4,4a,5,9b-hexahydro-1H-indeno[1,2-b]pyridine hydrochloride] | – | – | – | IC50 ([3]; hydrochloride, read-out: IC50): 6.1 µM; Ki ([4]; hydrochloride): 1100 nM; ED50 ([2]; hydrochloride): 28 mg/kg, po |
| c1ccc([C@]23CCCN[C@H]2c2ccccc2C3)cc1 [Example 3] | – | 39 mg/kg | 1200 nM | IC50 [3]: 6.8 µM |
| Cc1cc2c(s1)C[C@]1(C)CCCN[C@H]21 [Example 15] | 8.5 µM | 38 mg/kg | – | – |
| C[C@@]12CCCN[C@@H]1c1ccccc1CC2 [Example 17] | 2 µM | 4.2 mg/kg | – | – |
| CC(C)[C@]12CCCN[C@@H]1c1ccccc1C2 [Example 32] | 6.8 µM | 26 mg/kg | – | – |
| COc1ccc2c(c1)[C@H]1N(C)CCC[C@@]1(C)C2 [Example 56] | – | – | 1500 nM | – |
| COC[C@]12CCCN[C@@]1(C)c1ccccc1C2 [Example 68] | 0.6 µM | 26 mg/kg | – | – |
| CCOC[C@]12CCCN[C@@]1(C)c1ccccc1C2 [Example 69] | – | – | 1300 nM | – |
| CC[C@]12CCCN[C@H]1c1cc(CO)ccc1C2 [Example 77] | – | – | 4000 nM | – |
| C[C@]12CCCN[C@H]1c1ccccc1C2 [Example 81, (4aR,9bR)-4a-methyl-2,3,4,4a,5,9b-hexahydro-1H-indeno[1,2-b]pyridine hydrochloride] | – | 9.1 mg/kg | 2000 nM | IC50 ([3]; read-out: IC50): 21 µM |
| C[C@@]12CCCN[C@@H]1c1ccccc1C2 [Example 82, (4aS,9bS)-4-a-methyl-2,3,4,4a,5,9b-hexahydro-1H-indeno[1,2-b]pyridine hydrochloride] | 6.7 µM | 19 mg/kg | – | IC50 ([3]; read-out: IC50): 94 µM |
